From patent US12098147B2, “Compound having novel structure, complex comprising same, anti-cancer pharmaceutical composition, and anti-cancer drug” (ETNOVA THERAPEUTICS CORP., priority 2018, dated 2024)

Assays:
NE-4C = experiment: CCK-8 cell viability, NE-4C neural stem cell line; assay type: cell-based; settings: serum-free medium, 24 hours, CCK-8; mean ± SD of 2 to 3 experiments; read-out: IC50 NC-4C (Neural stem cell)
Protocol: (§1) CCK-8 (Cell counting kit-8) is analyzed using a highly water-soluble tetrazolium salt-[…]. [2-(2-methoxy-4-nitrophenyl)-3-(4-nitrophenyl)(2,4-disulfophenyl)-2H-tetrazolium, monosodium salt] is reduced under the presence of an electron medium to produces a water-soluble formazan orange dye. The amount of the formazan dye produced by dehydrogenase in a cell is directly proportional to the number of living cells.
(§2) In an experimental method for evaluating the properties of the compounds according to the present disclosure, various cancer cell lines derived from humans and normal cell lines of each tissue derived from humans and mice were used in this experiment. A complete growth medium corresponding to each cell line and having 10% of heat-inactivated FBS added thereto was used to maintain corresponding cells. The maintained cells were suspended in a volume of 200 μl at a density of 1 or 1.5×10^4 cells and planted in each well of a 96 well plate. The cells were attached to a 37° C. and 5% CO2 incubator for more than 14 hours, and we waited for a stable state. The next day, we removed the medium from the well. 100 μl of serum-free medium containing drugs of various concentrations (0 (control), 2.5, 5, 10, 20, 30, 40, 50, 100, 200 μM) was added to each well and the cells was cultured therein. On 22 hours after the incubation, 10 μl of CCK-8 solution was added to each well, followed by incubation for 2 hours. A plate on which the culture was completed was measured in terms of absorbance at 450 nm using a microplate reader.
(§3) Cell Viability Calculation:
(§4) • A: Absorbance value measured in a control well • B: Absorbance value measured in a well containing the drug
(§5) In Table 1 below, each compound was applied to the cells at 0, 2.5, 5, 10, 20, 30, 40, 50, 100, and 200 μM, and the cells was cultured in a medium free of serum for 24 hours. The measured absorbance value was converted to a % value based on a value of 0, such that a IC50 value was calculated. Each experiment was performed 2 to 3 times and a standard deviation value was obtained.

A549 = experiment: CCK-8 cell viability, A549 lung cancer cell line; assay type: cell-based, human; settings: serum-free medium, 24 hours, mean ± SD of 2 to 3 experiments
Protocol: (§6) To identify the anticancer effect of the compounds L1, L2, and L3 according to Examples 1 to 3 of the present disclosure, and the complexes L1Pt, L2Pt, and L3Pt according to Examples 4 to 6 of the disclosure, the cell viability analysis of cancer cells using CCK-8 was performed on several cancer cell lines (colorectal cancer cell line (HT-29 cell line), breast cancer cell line (MCF-7 and MDA-MB-231), cervical cancer cell line (HeLa cell line), liver cancer cell line (Huh-7 and HepG2), brain glioma cell line (C6), lung cancer (A549), prostate cancer (PC3), kidney cancer (Caki-2), normal liver cell line (AML-12), embryonic kidney cell line (HEK-293), neural stem cell line (NE-4C) and normal breast epithelial cell line (MCF10a)).
as §1, §2, §3, §4, §5

AML12 = experiment: CCK-8 cell viability, AML-12 normal liver cell line; assay type: cell-based; settings: serum-free medium, 24 hours, CCK-8; mean ± SD of 2 to 3 experiments
Protocol: as §1, §2, §3, §4, §5

PC3 = experiment: CCK-8 cell viability, PC3 prostate cancer cell line; assay type: cell-based, human; settings: serum-free medium, 24 hours, mean ± SD of 2 to 3 experiments
Protocol: as §6, §1, §2, §3, §4, §5

MCF-7 = experiment: CCK-8 cell viability, MCF-7 breast cancer cell line; assay type: cell-based, human; settings: serum-free medium, 24 hours, mean ± SD of 2 to 3 experiments
Protocol: as §6, §1, §2, §3, §4, §5

Huh-7 = experiment: CCK-8 cell viability, Huh-7 liver cancer cell line; assay type: cell-based, human; settings: serum-free medium, 24 hours, mean ± SD of 2 to 3 experiments
Protocol: as §6, §1, §2, §3, §4, §5

[1] = test system: several cancer cell lines; experiment: CCK-8 cell viability, panel of cancer cell lines compared in words (FIGS. 3a to 3e); assay type: cell-based, human; settings: Log IC50, FIGS. 3a to 3e; no comparator
Protocol: as §6, §1, §2
Further, FIGS. 3a to 3e show a graph in which a IC50 value which is obtained based on 2 to 3 times executions of the cell viability analysis is converted to a Log IC50 value. […] The comparative reliability values for BTA were expressed as […], ##p<0.01, and ## #p<0.001. A red line represents the value of cisplatin. A blue line represents the value of BTA.

HeLa cell line = experiment: CCK-8 cell viability, HeLa cervical cancer cell line; assay type: cell-based, human; settings: serum-free medium, 24 hours, mean ± SD of 2 to 3 experiments
Protocol: as §6, §1, §2, §3, §4, §5

MDA-MB-231 = experiment: CCK-8 cell viability, MDA-MB-231 breast cancer cell line; assay type: cell-based, human; settings: serum-free medium, 24 hours, mean ± SD of 2 to 3 experiments
Protocol: as §6, §1, §2, §3, §4, §5

HepG2 = experiment: CCK-8 cell viability, HepG2 liver cancer cell line; assay type: cell-based, human; settings: serum-free medium, 24 hours, mean ± SD of 2 to 3 experiments
Protocol: as §6, §1, §2, §3, §4, §5

HEK-293 = experiment: CCK-8 cell viability, HEK-293 embryonic kidney cell line; assay type: cell-based; settings: serum-free medium, 24 hours, mean ± SD of 2 to 3 experiments, read-out: IC50 HEK293 (embryonic kidney)
Protocol: as §6, §1, §2, §3, §4, §5

HT-29 cell line = experiment: CCK-8 cell viability, HT-29 colorectal cancer cell line; assay type: cell-based, human; settings: serum-free medium, 24 hours, mean ± SD of 2 to 3 experiments
Protocol: as §6, §1, §2, §3, §4, §5

C6 = experiment: CCK-8 cell viability, C6 brain glioma cell line; assay type: cell-based, human; settings: serum-free medium, 24 hours, mean ± SD of 2 to 3 experiments
Protocol: as §6, §1, §2, §3, §4, §5

MCF10a = experiment: CCK-8 cell viability, MCF10a normal breast epithelial cell line; assay type: cell-based; settings: serum-free medium, 24 hours, CCK-8; mean ± SD of 2 to 3 experiments
Protocol: as §6, §1, §2, §3, §4, §5

Caki-2 = experiment: CCK-8 cell viability, Caki-2 kidney cancer cell line; assay type: cell-based, human; settings: serum-free medium, 24 hours, mean ± SD of 2 to 3 experiments
Protocol: as §6, §1, §2, §3, §4, §5

Question: With “benzothiazole aniline [BTA, reference compound]” as the substance, how does the IC50 (NE-4C) read?
Answer: 60.9 ± 2.93 µM

Question: And the IC50 (A549)?
Answer: > 500 µM

Question: What about the IC50 (AML12) of the same substance?
Answer: > 500 µM

Question: And the IC50 (PC3)?
Answer: 182 ± 7.79 µM

Question: What about the IC50 (MCF-7) of the same substance?
Answer: 104 ± 28.6 µM

Question: What about the IC50 (Huh-7) of the same substance?
Answer: 406 ± 35.7 µM

Question: What about the “effect on cancer cell lines, in words” value [1] of the same substance?
Answer: did not have greater effect on colorectal cancer, brain glioma, and lung cancer

Question: What about the IC50 (HeLa cell line) of the same substance?
Answer: 76.4 ± 23.4 µM

Question: What about the IC50 (MDA-MB-231) of the same substance?
Answer: > 500 µM

Question: What about the IC50 (HepG2) of the same substance?
Answer: 52 ± 5.71 µM

Question: What about the IC50 (HEK-293) of the same substance?
Answer: > 500 µM

Question: And the IC50 (HT-29 cell line)?
Answer: 275 ± 5.03 µM

Question: And the IC50 (C6)?
Answer: 425 ± 47.8 µM

Question: And the IC50 (MCF10a)?
Answer: 401 ± 136 µM

Question: What about the IC50 (Caki-2) of the same substance?
Answer: 463 ± 44.1 µM
